Patent US8937072B2, “Substituted cyanoaniline compounds, preparation and use thereof” (Sinochem Corporation, priority 2011, dated 2015)
Like-named read-outs stand apart in the source and are kept apart here.

What was measured:
cucumber downy mildew = assay: Protectant activity in vivo (whole plant) against cucumber downy mildew
Description: (§1) The method is as followed: The whole plant is used in this test. The compound is dissolved in a proper solvent to get mother solution. The proper solvent is selected from acetone, methanol, DMF and so on according to their dissolving capability to the sample. The volume rate of solvent and testing solution (v/v) is equal to or less than 5%. The mother solution is diluted with water containing 0.1% tween-80 to get the testing solution whose concentration is designed. The testing solution is sprayed to the host plant by a special plant sprayer. The plant is inoculated with fungus after 24 hours. According to the infecting characteristic of fungus, the plant is stored in a humidity chamber and then transferred into greenhouse after infection is finished. And the other plants are placed in greenhouse directly. The activity of compound is obtained by eyeballing after 7 days in common.

rice blast = assay: microbe, parasite or virus in culture; format: cell-based; details: for the inhibition rate against rice blast (%) 0.03 mg/L: Table 21, 0.03 mg/L; for the inhibition rate against rice blast (%) 0.1 mg/L: Table 21, 0.1 mg/L; for the inhibition rate against rice blast (%) 0.3 mg/L: Table 21, 0.3 mg/L; for inhibition rate against rice blast: in vitro, dose 8.3 mg/L; for inhibition at 0.03 µg/mL: read-out: the inhibition rate against rice blast (%) 0.03 mg/L; for inhibition at 0.1 µg/mL: read-out: the inhibition rate against rice blast (%) 0.1 mg/L; for inhibition at 0.3 µg/mL: read-out: the inhibition rate against rice blast (%) 0.3 mg/L
cucumber gray mold = assay: Activity in vitro (96-well, High Through Put): inhibition rate against cucumber gray mold; format: cell-based; details: for inhibition at 25 µg/mL: dose 25 mg/L
Description: The method is as followed: High Through Put is used in the test. The compound is dissolved in a proper solvent to become a testing solution whose concentration is designed. The solvent is selected from acetone, methanol, DMF and so on according to their dissolving capability to the sample. In a no animalcule condition, the testing solution and pathogens suspension are added into the cells of 96 cells culture board, which then should be placed in the constant temperature box. 24 hours later, pathogen germination or growth can be investigated by eyeballing, and the activity in vitro of the compound is evaluated based on germination or growth of control treatment.

corn rust = assay: Protectant activity in vivo (whole plant) against corn rust
Description: as §1

[1] = Pyricularia oryzae, read-out: inhibition rate against rice blast
[2] = 0.9 mg/L, read-out: the inhibition rate against cucumber gray mold (%)
[3] = 2.8 mg/L, read-out: the inhibition rate against cucumber gray mold (%)
[4] = 8.3 mg/L, read-out: the inhibition rate against cucumber gray mold (%)

## N#Cc1c(Cl)c(Cl)c(Nc2cc(Cl)cnc2Cl)c(C#N)c1Cl [Compound B-133]
Cucumber downy mildew; 12.5 mg/L
  the protectant activity (%) against cucumber downy mildew: 95%
Cucumber downy mildew; 25 mg/L
  the protectant activity (%) against cucumber downy mildew: 100%
Cucumber downy mildew; 50 mg/L
  the protectant activity (%) against cucumber downy mildew: 100%
Cucumber downy mildew; 100 mg/L
  the protectant activity (%) against cucumber downy mildew: 100%
Cucumber downy mildew; dose 6.25 mg/L
  protectant activity against cucumber downy mildew in vivo: 80%
Cucumber downy mildew; dose 25 mg/L
  protectant activity against cucumber downy mildew in vivo: 100%
Cucumber downy mildew; dose 50 mg/L
  protectant activity against cucumber downy mildew in vivo: 100%
Cucumber downy mildew; dose 100 mg/L
  protectant activity against cucumber downy mildew in vivo: 100%
Rice blast
  the inhibition rate against rice blast (%) 0.03 mg/L: 100%
  the inhibition rate against rice blast (%) 0.1 mg/L: 100%
  the inhibition rate against rice blast (%) 0.3 mg/L: 100%

## N#Cc1c(Cl)c(Cl)c(C#N)c(Nc2c(F)cc([N+](=O)[O-])cc2F)c1Cl [Compound C-45]
Rice blast
  the inhibition rate against rice blast (%) 0.03 mg/L: 100%
  the inhibition rate against rice blast (%) 0.1 mg/L: 100%
  the inhibition rate against rice blast (%) 0.3 mg/L: 100%
Cucumber gray mold; 0.3 mg/L
  the inhibition rate against cucumber gray mold (%): 100%
Cucumber gray mold; 0.9 mg/L
  the inhibition rate against cucumber gray mold (%): 100%
Cucumber gray mold; 2.8 mg/L
  the inhibition rate against cucumber gray mold (%): 100%
Cucumber gray mold; 8.3 mg/L
  the inhibition rate against cucumber gray mold (%): 100%

## N#Cc1c(Cl)c(Cl)c(C#N)c(Nc2c(Cl)cc([N+](=O)[O-])cc2Br)c1Cl [Compound C-49]
Rice blast
  the inhibition rate against rice blast (%) 0.03 mg/L: 100%
  the inhibition rate against rice blast (%) 0.1 mg/L: 100%
  the inhibition rate against rice blast (%) 0.3 mg/L: 100%
Corn rust; 6.25 mg/L
  the protectant activity (%) against corn rust: 50%
Corn rust; 25 mg/L
  the protectant activity (%) against corn rust: 80%
Corn rust; 100 mg/L
  the protectant activity (%) against corn rust: 90%
Corn rust; 400 mg/L
  the protectant activity (%) against corn rust: 100%
Corn rust; dose 400 mg/L
  protectant activity against corn rust in vivo: 100%

## COc1ccc(Nc2c(F)c(C#N)c(F)c(F)c2C#N)cc1 [Compound C-68]
Rice blast
  inhibition rate against rice blast: 80%

## N#Cc1c(Cl)c(Cl)c(C#N)c(Nc2cc(Cl)cnc2Cl)c1Cl [Compound C-118]
Cucumber downy mildew; dose 400 mg/L
  protectant activity against cucumber downy mildew in vivo: 100%
Rice blast
  the inhibition rate against rice blast (%) 0.03 mg/L: 100%
  the inhibition rate against rice blast (%) 0.1 mg/L: 100%
  the inhibition rate against rice blast (%) 0.3 mg/L: 100%

## N#Cc1c(Cl)c(Cl)c(C#N)c(Nc2c(Cl)cncc2Cl)c1Cl [Compound C-124]
Cucumber downy mildew; dose 50 mg/L
  protectant activity against cucumber downy mildew in vivo: 100%
Cucumber downy mildew; dose 100 mg/L
  protectant activity against cucumber downy mildew in vivo: 100%
Cucumber downy mildew; dose 400 mg/L
  protectant activity against cucumber downy mildew in vivo: 100%
Rice blast
  the inhibition rate against rice blast (%) 0.03 mg/L: 100%
  the inhibition rate against rice blast (%) 0.1 mg/L: 100%
  the inhibition rate against rice blast (%) 0.3 mg/L: 100%

## N#Cc1c(Cl)c(Cl)c(C#N)c(Nc2ncccn2)c1Cl [Compound C-126]
Cucumber downy mildew; dose 400 mg/L
  protectant activity against cucumber downy mildew in vivo: 100%
Rice blast
  inhibition rate against rice blast: 80%

## CN(C)c1ccc(Nc2c(Cl)c(Cl)c(C#N)c(Cl)c2C#N)cc1 [KC23]
Rice blast; [1]
  inhibition at 25 µg/mL: 0%
Rice blast; Pyricularia oryzae
  inhibition at 0.03 µg/mL: 0%
  inhibition at 0.1 µg/mL: 0%
  inhibition at 0.3 µg/mL: 0%
Cucumber gray mold; 0.3 mg/L
  inhibition at 0.3 µg/mL: 0%
Cucumber gray mold; [2]
  inhibition at 0.9 µg/mL: 0%
Cucumber gray mold; [3]
  inhibition at 2.8 µg/mL: 0%
Cucumber gray mold; [4]
  inhibition at 8.3 µg/mL: 0%
Cucumber gray mold; in vitro
  inhibition at 25 µg/mL: 0%

## N#Cc1c(F)c(F)c(Nc2c(Cl)c(F)nc(F)c2Cl)c(F)c1C#N [KC28]
Rice blast; [1]
  inhibition at 2.8 µg/mL: 0%
  inhibition at 8.3 µg/mL: 50%
  inhibition at 25 µg/mL: 80%
Rice blast; Pyricularia oryzae
  inhibition at 0.03 µg/mL: 0%
  inhibition at 0.1 µg/mL: 0%
  inhibition at 0.3 µg/mL: 0%
Cucumber gray mold; 0.3 mg/L
  inhibition at 0.3 µg/mL: 0%
Cucumber gray mold; [2]
  inhibition at 0.9 µg/mL: 0%
Cucumber gray mold; [3]
  inhibition at 2.8 µg/mL: 0%
Cucumber gray mold; [4]
  inhibition at 8.3 µg/mL: 0%
Cucumber gray mold; in vitro, dose 8.3 mg/L, read-out: inhibition rate against cucumber gray mold
  inhibition at 8.3 µg/mL: 0%
Cucumber gray mold; in vitro
  inhibition at 25 µg/mL: 80%

## O=[N+]([O-])c1cc(C(F)(F)F)c(Cl)c([N+](=O)[O-])c1Nc1ncc(C(F)(F)F)cc1Cl [fluazinam]
Rice blast; Pyricularia oryzae
  inhibition at 0.03 µg/mL: 50%
  inhibition at 0.1 µg/mL: 80%
  inhibition at 0.3 µg/mL: 100%
